BindingDB's records for doi:10.1021/jm990341r (University of Wisconsin-Milwaukee, 2000)
One block for each molecule: values may come before it.

What was measured:
[1] = biological target: T1, GABA-A receptor; alpha-5/beta-3/gamma-2 (Homo sapiens, UniProt P31644+P18507+P28472); test: Binding affinity for human recombinant gamma-aminobutyric-acid (GABA) A receptor alpha-5-beta-3-gamma-2
T1 sequence (P31644 whole entry): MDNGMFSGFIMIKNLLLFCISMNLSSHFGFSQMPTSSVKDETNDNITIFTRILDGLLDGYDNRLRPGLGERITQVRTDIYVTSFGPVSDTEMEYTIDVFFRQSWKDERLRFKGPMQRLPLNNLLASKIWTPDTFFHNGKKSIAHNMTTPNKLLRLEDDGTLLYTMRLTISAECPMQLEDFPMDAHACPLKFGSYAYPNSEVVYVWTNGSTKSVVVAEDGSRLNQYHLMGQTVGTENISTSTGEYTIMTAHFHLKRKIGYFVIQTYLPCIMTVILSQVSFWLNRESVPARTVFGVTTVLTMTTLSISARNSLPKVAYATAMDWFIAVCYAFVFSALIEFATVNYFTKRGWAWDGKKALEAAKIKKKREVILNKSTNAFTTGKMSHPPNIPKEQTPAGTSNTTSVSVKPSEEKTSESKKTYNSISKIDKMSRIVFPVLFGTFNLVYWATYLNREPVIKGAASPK
T1 sequence (P18507 whole entry): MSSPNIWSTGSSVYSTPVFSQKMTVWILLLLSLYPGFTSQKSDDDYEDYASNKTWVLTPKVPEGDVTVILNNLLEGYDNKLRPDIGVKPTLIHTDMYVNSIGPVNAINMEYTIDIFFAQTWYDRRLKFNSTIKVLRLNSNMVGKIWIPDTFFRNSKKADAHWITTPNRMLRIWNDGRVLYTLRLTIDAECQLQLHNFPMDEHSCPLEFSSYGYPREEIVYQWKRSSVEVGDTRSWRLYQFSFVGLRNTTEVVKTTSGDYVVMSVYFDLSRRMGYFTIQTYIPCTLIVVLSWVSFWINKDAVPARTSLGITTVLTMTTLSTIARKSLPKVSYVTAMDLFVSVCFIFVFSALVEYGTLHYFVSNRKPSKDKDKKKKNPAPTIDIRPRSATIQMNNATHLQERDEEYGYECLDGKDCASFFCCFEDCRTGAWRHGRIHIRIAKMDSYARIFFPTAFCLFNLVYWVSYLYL
T1 sequence (P28472 whole entry): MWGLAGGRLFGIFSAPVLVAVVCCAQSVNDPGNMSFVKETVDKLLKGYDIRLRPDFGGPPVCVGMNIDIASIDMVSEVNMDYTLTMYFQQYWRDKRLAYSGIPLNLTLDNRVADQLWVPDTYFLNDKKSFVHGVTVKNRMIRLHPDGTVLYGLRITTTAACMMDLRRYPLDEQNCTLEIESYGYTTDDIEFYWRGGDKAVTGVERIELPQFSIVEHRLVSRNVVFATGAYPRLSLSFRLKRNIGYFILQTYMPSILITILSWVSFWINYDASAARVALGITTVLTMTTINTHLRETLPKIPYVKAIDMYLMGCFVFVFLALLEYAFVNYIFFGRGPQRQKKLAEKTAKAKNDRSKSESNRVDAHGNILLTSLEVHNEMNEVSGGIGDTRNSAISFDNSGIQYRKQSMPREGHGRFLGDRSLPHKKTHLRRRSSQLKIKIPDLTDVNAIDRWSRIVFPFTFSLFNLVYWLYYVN

[2] = biological target: T2, Gamma-aminobutyric acid receptor subunit alpha-3/beta-3/gamma-2 (Homo sapiens, UniProt P34903+P18507+P28472); test: Binding affinity for human recombinant gamma-aminobutyric-acid (GABA) A receptor alpha-3-beta-3-gamma-2
T2 sequence (P34903 whole entry): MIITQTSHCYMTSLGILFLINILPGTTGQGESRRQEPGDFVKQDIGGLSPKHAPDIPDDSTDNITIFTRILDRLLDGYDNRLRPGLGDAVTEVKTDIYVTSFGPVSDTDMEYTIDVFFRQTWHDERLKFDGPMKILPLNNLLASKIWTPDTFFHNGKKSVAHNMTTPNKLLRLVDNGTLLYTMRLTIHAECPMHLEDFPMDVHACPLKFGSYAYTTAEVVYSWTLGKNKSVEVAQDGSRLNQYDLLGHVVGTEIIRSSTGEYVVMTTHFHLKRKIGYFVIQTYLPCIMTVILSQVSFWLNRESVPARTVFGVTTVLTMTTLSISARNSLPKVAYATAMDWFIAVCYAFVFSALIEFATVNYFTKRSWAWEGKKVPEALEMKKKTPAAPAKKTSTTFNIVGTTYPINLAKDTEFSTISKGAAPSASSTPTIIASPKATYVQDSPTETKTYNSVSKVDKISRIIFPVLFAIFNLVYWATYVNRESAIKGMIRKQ
T2 sequence (P18507 whole entry): T1 sequence (P18507 whole entry)
T2 sequence (P28472 whole entry): T1 sequence (P28472 whole entry)

[3] = biological target: Gamma-aminobutyric acid receptor subunit alpha-6/beta-3/gamma-2 (Homo sapiens, UniProt Q16445+P18507+P28472); test: Binding affinity for human recombinant gamma-aminobutyric-acid (GABA) A receptor alpha-6-beta-3-gamma-2
Sequence of Gamma-aminobutyric acid receptor subunit alpha-6/beta-3/gamma-2 (Q16445 whole entry, one chain of several): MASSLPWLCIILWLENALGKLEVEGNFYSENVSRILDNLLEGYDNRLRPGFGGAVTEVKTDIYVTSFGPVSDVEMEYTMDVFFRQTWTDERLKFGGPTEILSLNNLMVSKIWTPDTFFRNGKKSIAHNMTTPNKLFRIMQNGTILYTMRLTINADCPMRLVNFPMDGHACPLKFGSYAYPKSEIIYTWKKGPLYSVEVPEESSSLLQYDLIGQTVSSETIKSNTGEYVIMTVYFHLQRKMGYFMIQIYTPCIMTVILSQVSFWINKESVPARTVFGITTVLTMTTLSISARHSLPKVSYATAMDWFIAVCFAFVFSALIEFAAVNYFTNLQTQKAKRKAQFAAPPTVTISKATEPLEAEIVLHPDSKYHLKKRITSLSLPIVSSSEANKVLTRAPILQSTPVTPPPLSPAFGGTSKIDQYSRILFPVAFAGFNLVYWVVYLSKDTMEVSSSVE

[4] = biological target: T3, GABA-A receptor; alpha-2/beta-3/gamma-2 (Homo sapiens, UniProt P47869+P18507+P28472); test: Binding affinity to human recombinant gamma-aminobutyric-acid (GABA) A receptor alpha-2-beta-3-gamma-2
T3 sequence (P47869 whole entry): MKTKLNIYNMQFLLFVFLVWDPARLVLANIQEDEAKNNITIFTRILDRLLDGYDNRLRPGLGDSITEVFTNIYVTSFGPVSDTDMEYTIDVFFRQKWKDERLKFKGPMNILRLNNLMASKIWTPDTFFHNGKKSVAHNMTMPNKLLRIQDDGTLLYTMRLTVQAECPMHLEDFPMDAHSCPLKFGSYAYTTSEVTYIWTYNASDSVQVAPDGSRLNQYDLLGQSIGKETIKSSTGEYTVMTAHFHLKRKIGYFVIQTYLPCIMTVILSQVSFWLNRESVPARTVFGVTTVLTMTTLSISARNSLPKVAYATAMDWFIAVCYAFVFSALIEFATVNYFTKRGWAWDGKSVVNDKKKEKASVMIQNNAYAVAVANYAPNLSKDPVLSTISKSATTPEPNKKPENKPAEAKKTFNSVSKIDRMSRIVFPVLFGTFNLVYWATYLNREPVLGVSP
T3 sequence (P18507 whole entry): T1 sequence (P18507 whole entry)
T3 sequence (P28472 whole entry): T1 sequence (P28472 whole entry)

[5] = biological target: T4, Gamma-aminobutyric acid receptor subunit alpha-1/beta-3/gamma-2 (Homo sapiens, UniProt P14867+P18507+P28472); test: Binding affinity for human recombinant gamma-aminobutyric-acid (GABA) A receptor alpha-1-beta-3-gamma-2
T4 sequence (P14867 whole entry): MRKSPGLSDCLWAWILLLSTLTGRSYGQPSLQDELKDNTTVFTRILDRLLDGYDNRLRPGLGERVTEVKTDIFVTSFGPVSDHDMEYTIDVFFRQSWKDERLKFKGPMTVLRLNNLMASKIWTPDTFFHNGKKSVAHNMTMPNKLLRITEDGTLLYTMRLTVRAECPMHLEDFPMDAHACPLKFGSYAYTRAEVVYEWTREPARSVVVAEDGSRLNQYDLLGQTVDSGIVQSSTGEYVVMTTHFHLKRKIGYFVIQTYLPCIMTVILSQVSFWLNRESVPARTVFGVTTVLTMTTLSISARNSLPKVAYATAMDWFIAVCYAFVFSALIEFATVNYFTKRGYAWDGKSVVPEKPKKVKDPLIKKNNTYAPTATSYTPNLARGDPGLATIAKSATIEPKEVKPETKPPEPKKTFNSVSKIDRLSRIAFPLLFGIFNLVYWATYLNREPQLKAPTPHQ
T4 sequence (P18507 whole entry): T1 sequence (P18507 whole entry)
T4 sequence (P28472 whole entry): T1 sequence (P28472 whole entry)

SMILES: CCOC(=O)c1[nH]cc2nc3ccccc3c-2c1COC
- Ki [1]: 10 nM
- Ki [2]: 4.9 nM

SMILES: COc1ccc2c(c1)[nH]c1c3c4ccccc4nc-3c[nH]c12
- Ki [3]: > 10000 nM
- Ki [4]: 12 nM

SMILES: CCOC(=O)c1[nH]cc2nc3ccc(OCc4ccccc4)cc3c-2c1COC [6-Benzyloxy-4-methoxymethyl-9H-beta-carboline-3-carboxylic acid ethyl ester]
- Ki [2]: 6 nM

SMILES: COCc1c(C(=O)OC(C)C)[nH]cc2nc3ccc(OCc4ccccc4)cc3c1-2 [6-Benzyloxy-4-methoxymethyl-9H-beta-carboline-3-carboxylic acid isopropyl ester(Abecarnil)]
- Ki [3]: > 1000 nM
- Ki [5]: 12 nM

The next lines start with the values.

- Ki [3]: > 10000 nM
- Ki [4]: 12 nM
- Ki [2]: 24 nM
SMILES: Clc1ccc2c(c1)[nH]c1c3c4ccccc4nc-3c[nH]c12

- Ki [3]: > 10000 nM
- Ki [4]: 12 nM
- Ki [2]: 16 nM
SMILES: c1ccc2c(c1)[nH]c1c[nH]c3c4cccnc4nc-3c12 [7,12-Dihydro-1,5,7,12-tetraaza-indeno[1,2-a]fluorene]

- Ki [3]: > 10000 nM
- Ki [4]: 24 nM
- Ki [2]: 31 nM
SMILES: c1ccc2c(c1)[nH]c1c[nH]c3c4ccncc4nc-3c12 [7,12-Dihydro-2,5,7,12-tetraaza-indeno[1,2-a]fluorene]
